{"source": "patent US9717820B2", "about": "“Procoagulant peptides and their derivatives and uses therefor” (Ethicon, Inc., priority 2011, dated 2017)", "key": {"[1]": {"test_system": "Heparinized Porcine spleen biopsy punch model", "assay": "Heparinized porcine spleen biopsy punch model, time to hemostasis", "assay_type": "in vivo", "settings": "mixture with Surgiflo; for hemostatic effect in heparinized blood: 2 mL of 5 mM in saline (thrombin: EVITHROM), ACT above 300 seconds", "source_text": "The model was Heparinized Porcine spleen biopsy punch model: 6 mm wide×3 mm deep, tamponade time: 30 sec; observation time: 30 sec; activated clotting time (ACT) was maintained above 300 seconds by infusing additional 2000 IU heparin solution if needed. 9975 IU of heparin solution was initially applied to a 39.1 Kg porcine."}, "[2]": {"test_system": "porcine blood containing sodium citrate", "assay": "bench top test: solution added to citrated porcine blood in glass vials", "settings": "100 μL of 0.5 mM solution added to 100 μL citrated porcine blood; for precipitation of blood: after 2 hrs", "experimental": "In a bench top experiment, pegylated SEQ ID NO: 1 in normal saline solution, non-pegylated SEQ ID NO: 1 in normal saline solution, and control solution of normal saline were tested to evaluate interaction with blood. Samples were prepared by adding 100 μL of pegylated SEQ ID NO: 1 in normal saline solution (0.5 mM), SEQ ID NO: 1 in normal saline solution (0.5 mM), and normal saline to separate glass vials containing 100 μL of porcine blood containing sodium citrate (0.105M). […] Thus the pegylated SEQ ID NO: 1 and non-pegylated SEQ ID NO: 1 was shown as promoting rapid blood coagulation."}, "[3]": {"test_system": "washed human platelets", "settings": "washed human platelets from different donors; cited from earlier work"}, "[4]": {"test_system": "porcine spleen biopsy punch model", "assay": "porcine spleen biopsy punch model, time to hemostasis", "assay_type": "in vivo", "settings": "for hemostatic performance vs Surgiflo with normal saline: ORC powder scaffold, FIG. 5, N=4; for time to hemostasis vs Surgiflo with saline and with PEG2000 (5 mM): FIG. 3, N=3; for hemostatic efficacy vs Surgiflo with thrombin: 0.05-5 mM; for hemostatic efficacy (time to hemostasis): pegylated (PEG2000) 8 amino acid peptides in mixture with Surgiflo, FIG. 5; for time to hemostasis vs thrombin: FIG. 2, N=3", "experimental": "The data was collected using in vivo porcine spleen biopsy punch model [6 mm wide×3 mm deep], initial tamponade time: 30 s; observation time: 30 s; N=3.\nIn vivo hemostatic activity study was performed using the porcine spleen biopsy punch model, with the punched wound opening 6 mm wide×3 mm deep made on the spleen and the test article applied to a freshly created wound site followed by an occlusive digital pressure (tamponade). Pressure was initially applied for 30 second and was timed using an electronic timer. Following the 30 seconds tamponade, digital pressure was discontinued; the gauze pad on the article was immediately removed. A 30-second hemostasis evaluation period was performed. If free flow bleeding was not observed within 30 seconds, the time to hemostasis was noted, in a minutes seconds format, and testing was concluded for that article. If free flow bleeding was observed, pressure and gauze were reapplied for additional 30 seconds tamponade and observation periods until hemostasis was achieved or until the testing period reached ten minutes. Hemostasis was determined by the cessation of free flow bleeding in less than ten minutes. Gauze pad was used as a negative control.\nThe data was collected using porcine spleen biopsy punch model [6 mm wide×3 mm deep], initial tamponade time: 30 s; observation time: 30 s; N=3.\nThe data was collected using porcine spleen biopsy punch model [6 mm wide×3 mm […]], initial tamponade time: 30 s; observation time: 30 s; N=3.\nThe inventors have tested the following ORC-based compositions: • mixtures of ORC with pegylated SEQ ID NO: 1 at 5 mM concentration (designated on the chart as ORC/PEG2000-RK-8) • mixtures of ORC with SEQ ID NO: 1 at 5 mM concentration (designated on the chart as ORC/RK-8) • mixtures of ORC with normal saline The data was collected using porcine spleen biopsy punch model [6 mm wide×3 mm […]], initial tamponade time: 30 s; observation time: 30 s; N=4.\nThe data was collected using porcine spleen biopsy punch model [6 mm wide×3 mm deep], initial tamponade time: 30 s; observation time: 30 s."}, "[5]": {"test_system": "fresh porcine blood", "assay": "bench top test: treated Monocryl pad with fresh porcine blood", "settings": "100 μL of 0.5 mM on 0.025 g Monocryl pad, 150 μL fresh porcine blood, 2 minutes, room temperature", "experimental": "In a bench top experiment, a synthetic porous pad was treated with pegylated SEQ ID NO: 1 in saline solution or with control solution of saline to evaluate interaction with blood. Samples were prepared by adding 100 μL of pegylated SEQ ID NO: 1 in normal saline solution (0.5 mM) or 200 μL of normal saline solution to 0.025 g Monocryl (poliglecaprone 25) pad. The impregnated Monocryl* (poliglecaprone 25) pads were then air-dried for 2 hrs following by an 1-hr vacuum drying process.\n150 μL of fresh porcine blood was then added to each pad separately, and allowed it sit at room temperature for 2 minutes. The pads were then transferred to a Petri dish containing 20 mL of saline solution, observing non-coagulated blood diffusing out from the pads. […] Thus the pegylated SEQ ID NO: 1 was shown as promoting rapid blood coagulation."}, "[6]": {"test_system": "clopidogrel and acetylsalicylic acid treated porcine spleen biopsy punch model", "assay": "clopidogrel and acetylsalicylic acid treated porcine spleen biopsy punch model (platelet inactivated)", "assay_type": "in vivo", "settings": "mixture with Surgiflo, 0.5 mM PEG2000-RK8 in saline, FIG. 8", "experimental": "The data was collected using a clopidogrel and acetylsalicylic acid treated porcine spleen biopsy punch model (6 mm wide×3 mm deep, tamponade time: 30 sec; observation time: 30 sec; the following oral dosages were applied to a 4-month-old female porcine (weight: 66.1 Kg): • 2 days prior to the lab: 300 mg of Plavix and 325 mg of aspirin. • 1 day prior to the lab: 75 mg of Plavix and 325 mg of aspirin. • The day for the lab: 75 mg of Plavix and 325 mg of aspirin before the surgery."}, "[7]": {"settings": "mixture with Surgiflo, 5 mM, FIG. 6"}, "[8]": {"settings": "mixture with Surgiflo, FIG. 4, N=3"}}, "note": "No end group written: not given here. mPEG 5000 = methoxy-PEG, average 5000 Da, coupled via mPEG-NHS"}
{"substance": "Arg-Phe-Tyr-Val-Val-Met-Trp-Lys (RFYVVMWK) [SEQ ID NO: 1]", "values": [{"measurement": "hemostatic effect in heparinized blood", "setting": "[1]; FIG. 7", "value": "failed as hemostat in heparinized blood"}, {"measurement": "clouding of blood", "setting": "[2]", "value": "instantly observed"}, {"measurement": "precipitation of blood", "setting": "[2]", "value": "complete precipitation of blood"}, {"measurement": "concentrations that induce activation and aggregation of platelets", "setting": "[3]", "value": "5 to 25", "unit": "mM"}, {"measurement": "hemostatic performance vs Surgiflo with normal saline", "setting": "[4]; 5 mM", "value": "not suitable"}, {"measurement": "time to hemostasis vs Surgiflo with saline and with PEG2000 (5 mM)", "setting": "[4]; mixture with Surgiflo, 5 mM", "value": "much faster time to hemostasis"}, {"measurement": "effectiveness as hemostatic agent (time to hemostasis)", "setting": "[4]; [7]", "value": "performed as well as thrombin"}, {"measurement": "hemostatic efficacy vs Surgiflo with thrombin", "setting": "[4]; [8]", "value": "hemostatic efficacy comparable to mixtures of Surgiflo™ with thrombin"}]}
{"substance": "PEG5000-SEQ ID NO: 1: SEQ ID NO: 1 with mPEG 5000 conjugated onto the N-terminus via mPEG-NHS ({mPEG 5000}-RFYVVMWK)", "values": [{"measurement": "hemostatic efficacy vs thrombin, non-pegylated SEQ ID NO: 1 and other controls", "setting": "[1]; heparinized blood, 5 mM", "value": "superior hemostatic efficacy"}, {"measurement": "hemostatic effect in heparinized blood", "setting": "[1]; FIG. 7", "value": "significant hemostatic efficacy"}]}
{"substance": "SEQ ID NO: 7: PEG2000-conjugated peptide KYFLLQFR (Lys-Tyr-Phe-Leu-Leu-Gln-Phe-Arg) (PEG2000-KYFLLQFR)", "values": [{"measurement": "hemostatic efficacy (time to hemostasis)", "setting": "[4]; 5 mM", "value": "somewhat longer time to hemostasis, comparable to non-pegylated SEQ ID NO: 1"}]}
{"substance": "SEQ ID NO: 21: PEG2000-conjugated random sequence 8 amino acid peptide KVYRWFMV (PEG2000-KVYRWFMV) [reference compound]", "values": [{"measurement": "hemostatic efficacy (time to hemostasis)", "setting": "[4]; 5 mM", "value": "longer time to hemostasis, comparable to SF/saline mixture"}]}
{"substance": "pegylated SEQ ID NO: 1: SEQ ID NO: 1 with mPEG (average 2000 Da) conjugated onto the N-terminus via mPEG-NHS ({mPEG 2000 Da}-RFYVVMWK)", "values": [{"measurement": "coagulated blood trapped in treated pad", "setting": "[5]", "value": "significant amount of coagulated blood"}, {"measurement": "hemostatic effect in heparinized blood", "setting": "[1]; FIG. 7", "value": "some hemostatic effect"}, {"measurement": "time to hemostasis", "setting": "[1]; 2 mL of 5 mM in saline, heparinized blood, FIG. 7", "value": 6.8, "unit": "min"}, {"measurement": "clouding of blood", "setting": "[2]", "value": "instantly observed"}, {"measurement": "precipitation of blood", "setting": "[2]", "value": "complete precipitation of blood"}, {"measurement": "hemostatic efficacy vs Surgiflo/Thrombin", "setting": "[6]", "value": "working as well as Surgiflo/Thrombin"}, {"measurement": "hemostatic performance vs Surgiflo with normal saline", "setting": "[4]; 5 mM", "value": "not suitable"}, {"measurement": "hemostatic testing", "setting": "[4]; Pluronic acid F127 scaffold, 5 mM, FIG. 6", "value": "failed in hemostatic testing"}, {"measurement": "time to hemostasis vs thrombin", "setting": "[4]; mixture with Surgiflo, 0.05 mM to 5 mM", "value": "comparable to thrombin"}, {"measurement": "time to hemostasis", "setting": "[4]; mixture with Surgiflo, 0.05 mM, FIG. 4, N=3", "value": "particularly fast time to hemostasis"}, {"measurement": "time to hemostasis vs thrombin", "setting": "[4]; mixture with Surgiflo, 0.1 mM", "value": "possibly better time to hemostasis than Thrombin"}, {"measurement": "time to hemostasis vs Surgiflo with saline and with PEG2000 (5 mM)", "setting": "[4]; mixture with Surgiflo, 5 mM", "value": "much faster time to hemostasis"}, {"measurement": "effectiveness as hemostatic agent (time to hemostasis)", "setting": "[4]; [7]", "value": "performed as well as thrombin"}, {"measurement": "hemostatic efficacy vs Surgiflo with thrombin", "setting": "[4]; [8]", "value": "better or similar hemostatic efficacy"}, {"measurement": "hemostatic efficacy vs SEQ ID NO: 1 and Thrombin", "setting": "[4]; mixtures with Surgiflo, FIG. 4, further analysis", "value": "better hemostatic efficacy than SEQ ID NO: 1 and Thrombin"}]}
{"substance": "thrombin", "values": [{"measurement": "hemostatic effect in heparinized blood", "setting": "[1]; FIG. 7", "value": "failed as hemostat in heparinized blood"}]}
